Source: patent US20230105725A1, “HIGHLY SAFE NON-LAMELLAR LIQUID CRYSTAL FORMING COMPOSITION” (FARNEX INCORPORATED, priority 2020, published 2023)

Assay: Viscosity of the amphipathic compound
Format: physicochemical
Settings: not given
Method: Specifically, the amphipathic compound represented by the general formula (I) has a viscosity of preferably 15.0 Pa·s or less, more preferably 11.0 Pa·s or less, further preferably 6.0 Pa·s or less, by itself, as measured at 25° C. This viscosity can be measured using, for example, a viscosity and viscoelasticity measuring apparatus (Gemini II, Malvern Instruments Ltd.) at a temperature of 25° C.

Structure (SMILES) | Viscosity [Pa·s]
CC(=CCCC(=O)OCC(CO)(CO)CO)CCCC(C)CCCC(C)CCCC(C)C (stereo not shown) [C22 pentaerythritol ester, mono-O-(5,9,13,17-tetramethyloctadec-4-enoyl)pentaerythritol] | 1.7

Same assay, conditions: at shear velocity of 92 1/s

Structure (SMILES) | Viscosity [Pa·s]
CC(C)=CCC/C(C)=C/CC/C(C)=C/CCC(C)=CCCC(=O)OCC(O)CO (stereo not shown) [glyceryl geranylgeranylacetate, mono-O-(5,9,13,17-tetramethyloctadeca-4,8,12,16-tetraenoyl)glycerol] | 0.37

Assay: Gel formation test of precursor formulations in excess aqueous medium
Format: physicochemical
Settings: self-organizing lipid (SOL) criterion
Method: The precursor formulations of Nos. 1 to 75 thus prepared were subjected to a gel formation test. An aliquot (about 100 to 300 mg) of each precursor formulation was added to an excess aqueous medium (about 0.5 to 2 mL of injectable water for Nos. 1 to 61 and 64 to 75 or phosphate buffered saline (PBS) of pH 7.4 for Nos. 62 and 63) in a vial, and mixed at room temperature (25° C.) with a spatula or a vortex mixer. As a result, all the precursor formulations of Nos. 1 to 75 produced gel compositions having colorless transparent to white turbid appearance separated in the excess aqueous medium. […]

Structure (SMILES) | gel formation of the lipid used alone by mixing with water
CC(C)CCCC(C)CCCC(C)CCCC(C)CCCC(=O)OCC(C)O (stereo not shown) [saturated C22 propylene glycol ester, mono-O-(5,9,13,17-tetramethyloctadecanoyl)propylene glycol] | do not form a gel
C/C(=C\C(=O)OCC(C)O)CCCC(C)CCCC(C)CCCC(C)C (stereo not shown) [C20 propylene glycol ester, mono-O-(3,7,11,15-tetramethylhexadec-2-enoyl)propylene glycol] | do not form a gel
CC(C)CCCC(C)CCCC(C)CCCC(C)CC(=O)OCC(C)O (stereo not shown) [saturated C20 propylene glycol ester, mono-O-(3,7,11,15-tetramethylhexadecanoyl)propylene glycol] | do not form a gel
CC(=CCCC(=O)OCCC(C)(C)O)CCCC(C)CCCC(C)CCCC(C)C (stereo not shown) [C22 isoprene glycol ester, mono-O-(5,9,13,17-tetramethyloctadec-4-enoyl)3-methyl-1,3-butanediol] | do not form a gel
CC(=CCCC(=O)OCCC(C)O)CCCC(C)CCCC(C)CCCC(C)C (stereo not shown) [C22 butylene glycol ester, mono-O-(5,9,13,17-tetramethyloctadec-4-enoyl)1,3-butylene glycol] | do not form a gel
CC(=CCCC(=O)OCC(C)O)CCCC(C)CCCC(C)C (stereo not shown) [C17 propylene glycol ester, mono-O-(5,9,13-trimethyltetradec-4-enoyl)propylene glycol] | do not form a gel
CC(=CCC(=O)OCC(C)O)CCCC(C)CCCC(C)CCCC(C)C (stereo not shown) [C21 propylene glycol ester, mono-O-(4,8,12,16-tetramethylheptadec-3-enoyl)propylene glycol] | do not form a gel
CC(=CCCC(=O)OCCO)CCCC(C)CCCC(C)CCCC(C)C (stereo not shown) [C22 ethylene glycol ester, mono-O-(5,9,13,17-tetramethyloctadec-4-enoyl)ethylene glycol] | do not form a gel
